Assay results reported in ChEMBL document CHEMBL1201862, “PubChem BioAssay data set” (2004).
Activity calls are given as the source filed them.

Key:
[1] = microbe, parasite or virus in culture; format: functional; conditions: Mycobacterium tuberculosis
[2] = inhibitors of firefly luciferase expression or activity, dose response, H4 neuroglioma cells, luminescence (AID 1990); format: functional, cell-based
[3] = inhibitors of SNCA 5'UTR-driven reporter translation, confirmation, H4 neuroglioma cells, luminescence (AID 1988); format: functional, cell-based
[4] = Luminescence Cell-Based Dose Response HTS to Identify Inhibitors of 5'UTR Stem-Loop Driven Prion Protein mRNA Translation in H4 Neuroglioblastoma Cells. [Related pubchem assays: 1827 (Project Summary), 1813 (Primary HTS)]; format: functional
[5] = Luminescence Cell-Based Dose Retest to Confirm Inhibitors of Cancer Stem Cells. [Related pubchem assays (depositor defined):AID2717, AID2721]; format: functional; conditions: Homo sapiens
[6] = target: T1, Ubiquitin-conjugating enzyme E2 N (Homo sapiens, UniProt P61088); format: functional;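 also: Dose-response confirmation in a TR-FRET assay detecting UBC13-driven polyubiquitin chain formation, inhibition measured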
T1 sequence (P61088 whole entry): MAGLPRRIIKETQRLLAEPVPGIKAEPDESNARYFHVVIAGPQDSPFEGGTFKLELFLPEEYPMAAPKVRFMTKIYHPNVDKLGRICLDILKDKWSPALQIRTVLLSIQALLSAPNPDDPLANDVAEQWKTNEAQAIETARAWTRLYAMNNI

[7] = target: T2, Fatty acid synthase (Homo sapiens, UniProt P49327); assay: FAS thioesterase domain inhibitors, dose response, biochemical, endpoint fluorescence intensity, uHTS hits (AID 624327); format: functional;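 also: fluorescence from hydrolysis of an O-methyl fluorescein acyl ester substrate by the enzyme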
T2 sequence (P49327 whole entry, the tested form may be a part): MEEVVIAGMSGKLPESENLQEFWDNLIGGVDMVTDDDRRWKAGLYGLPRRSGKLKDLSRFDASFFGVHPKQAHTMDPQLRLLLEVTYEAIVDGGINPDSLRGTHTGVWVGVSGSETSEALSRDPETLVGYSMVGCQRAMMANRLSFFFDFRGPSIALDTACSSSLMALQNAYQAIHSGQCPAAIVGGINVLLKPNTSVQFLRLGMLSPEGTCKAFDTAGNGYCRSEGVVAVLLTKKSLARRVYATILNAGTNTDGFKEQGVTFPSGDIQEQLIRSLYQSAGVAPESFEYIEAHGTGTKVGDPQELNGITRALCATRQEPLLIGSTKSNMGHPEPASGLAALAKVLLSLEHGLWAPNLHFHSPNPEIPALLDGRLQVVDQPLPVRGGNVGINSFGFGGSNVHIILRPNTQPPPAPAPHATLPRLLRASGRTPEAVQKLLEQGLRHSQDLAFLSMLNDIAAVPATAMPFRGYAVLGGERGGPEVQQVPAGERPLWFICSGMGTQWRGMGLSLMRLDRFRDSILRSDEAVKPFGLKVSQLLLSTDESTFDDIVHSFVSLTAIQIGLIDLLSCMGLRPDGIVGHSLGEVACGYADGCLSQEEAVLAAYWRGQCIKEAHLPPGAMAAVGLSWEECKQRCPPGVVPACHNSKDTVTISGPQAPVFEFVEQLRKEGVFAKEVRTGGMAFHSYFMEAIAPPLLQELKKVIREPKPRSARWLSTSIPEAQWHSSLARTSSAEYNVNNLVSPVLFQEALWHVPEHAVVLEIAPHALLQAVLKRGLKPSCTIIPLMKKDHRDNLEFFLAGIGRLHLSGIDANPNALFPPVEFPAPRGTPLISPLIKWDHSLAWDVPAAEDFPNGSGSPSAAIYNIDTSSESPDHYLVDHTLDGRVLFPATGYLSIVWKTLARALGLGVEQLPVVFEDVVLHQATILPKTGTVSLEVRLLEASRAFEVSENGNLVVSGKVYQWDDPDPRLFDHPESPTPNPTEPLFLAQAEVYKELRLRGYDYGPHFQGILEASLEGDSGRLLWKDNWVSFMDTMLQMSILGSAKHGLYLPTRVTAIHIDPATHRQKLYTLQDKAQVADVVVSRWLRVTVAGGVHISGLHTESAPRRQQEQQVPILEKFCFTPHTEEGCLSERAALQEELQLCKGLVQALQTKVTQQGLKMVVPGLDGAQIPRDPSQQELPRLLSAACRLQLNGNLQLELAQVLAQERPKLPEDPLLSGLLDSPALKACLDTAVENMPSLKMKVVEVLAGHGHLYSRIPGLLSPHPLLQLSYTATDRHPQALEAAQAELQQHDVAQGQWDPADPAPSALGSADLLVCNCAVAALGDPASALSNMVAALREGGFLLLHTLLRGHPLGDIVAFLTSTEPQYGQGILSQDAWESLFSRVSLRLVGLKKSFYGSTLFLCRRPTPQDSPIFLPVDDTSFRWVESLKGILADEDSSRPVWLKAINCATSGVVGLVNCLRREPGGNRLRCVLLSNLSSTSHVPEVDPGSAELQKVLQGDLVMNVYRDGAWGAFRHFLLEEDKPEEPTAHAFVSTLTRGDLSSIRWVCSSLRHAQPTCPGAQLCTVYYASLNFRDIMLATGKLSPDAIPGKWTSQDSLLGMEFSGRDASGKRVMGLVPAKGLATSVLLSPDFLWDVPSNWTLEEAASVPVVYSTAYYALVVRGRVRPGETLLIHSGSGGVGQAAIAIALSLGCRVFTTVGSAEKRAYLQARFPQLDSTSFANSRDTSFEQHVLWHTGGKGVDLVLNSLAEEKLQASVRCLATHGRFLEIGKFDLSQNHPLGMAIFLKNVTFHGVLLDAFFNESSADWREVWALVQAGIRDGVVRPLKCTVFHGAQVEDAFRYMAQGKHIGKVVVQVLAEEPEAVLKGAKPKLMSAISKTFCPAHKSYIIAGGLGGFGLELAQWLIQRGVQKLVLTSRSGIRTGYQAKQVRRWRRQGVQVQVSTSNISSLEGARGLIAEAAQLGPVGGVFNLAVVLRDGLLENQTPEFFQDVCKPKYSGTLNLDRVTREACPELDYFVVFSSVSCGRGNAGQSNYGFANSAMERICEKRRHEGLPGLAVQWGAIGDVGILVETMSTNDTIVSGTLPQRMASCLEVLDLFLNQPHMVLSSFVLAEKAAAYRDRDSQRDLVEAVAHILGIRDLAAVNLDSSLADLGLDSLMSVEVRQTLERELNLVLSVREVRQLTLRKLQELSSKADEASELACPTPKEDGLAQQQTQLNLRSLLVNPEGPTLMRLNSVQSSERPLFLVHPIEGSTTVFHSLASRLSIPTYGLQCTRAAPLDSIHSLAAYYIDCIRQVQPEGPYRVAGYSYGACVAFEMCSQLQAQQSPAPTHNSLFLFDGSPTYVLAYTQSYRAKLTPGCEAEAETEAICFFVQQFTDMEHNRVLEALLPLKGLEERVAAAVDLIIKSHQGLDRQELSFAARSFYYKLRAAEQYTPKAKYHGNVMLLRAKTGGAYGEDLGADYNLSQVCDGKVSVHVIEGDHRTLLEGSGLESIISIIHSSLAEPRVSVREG

[8] = target: T2, Fatty acid synthase; assay: FAS thioesterase domain inhibitors, dose response, biochemical, kinetic fluorescence intensity (AID 624326); format: functional;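 also: rate of fluorescence rise from hydrolysis of a fluorogenic O-methyl fluorescein ester substrate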
[9] = target: T3, Apoptotic protease-activating factor 1 (Homo sapiens, UniProt O14727); format: functional
T3 sequence (O14727 whole entry): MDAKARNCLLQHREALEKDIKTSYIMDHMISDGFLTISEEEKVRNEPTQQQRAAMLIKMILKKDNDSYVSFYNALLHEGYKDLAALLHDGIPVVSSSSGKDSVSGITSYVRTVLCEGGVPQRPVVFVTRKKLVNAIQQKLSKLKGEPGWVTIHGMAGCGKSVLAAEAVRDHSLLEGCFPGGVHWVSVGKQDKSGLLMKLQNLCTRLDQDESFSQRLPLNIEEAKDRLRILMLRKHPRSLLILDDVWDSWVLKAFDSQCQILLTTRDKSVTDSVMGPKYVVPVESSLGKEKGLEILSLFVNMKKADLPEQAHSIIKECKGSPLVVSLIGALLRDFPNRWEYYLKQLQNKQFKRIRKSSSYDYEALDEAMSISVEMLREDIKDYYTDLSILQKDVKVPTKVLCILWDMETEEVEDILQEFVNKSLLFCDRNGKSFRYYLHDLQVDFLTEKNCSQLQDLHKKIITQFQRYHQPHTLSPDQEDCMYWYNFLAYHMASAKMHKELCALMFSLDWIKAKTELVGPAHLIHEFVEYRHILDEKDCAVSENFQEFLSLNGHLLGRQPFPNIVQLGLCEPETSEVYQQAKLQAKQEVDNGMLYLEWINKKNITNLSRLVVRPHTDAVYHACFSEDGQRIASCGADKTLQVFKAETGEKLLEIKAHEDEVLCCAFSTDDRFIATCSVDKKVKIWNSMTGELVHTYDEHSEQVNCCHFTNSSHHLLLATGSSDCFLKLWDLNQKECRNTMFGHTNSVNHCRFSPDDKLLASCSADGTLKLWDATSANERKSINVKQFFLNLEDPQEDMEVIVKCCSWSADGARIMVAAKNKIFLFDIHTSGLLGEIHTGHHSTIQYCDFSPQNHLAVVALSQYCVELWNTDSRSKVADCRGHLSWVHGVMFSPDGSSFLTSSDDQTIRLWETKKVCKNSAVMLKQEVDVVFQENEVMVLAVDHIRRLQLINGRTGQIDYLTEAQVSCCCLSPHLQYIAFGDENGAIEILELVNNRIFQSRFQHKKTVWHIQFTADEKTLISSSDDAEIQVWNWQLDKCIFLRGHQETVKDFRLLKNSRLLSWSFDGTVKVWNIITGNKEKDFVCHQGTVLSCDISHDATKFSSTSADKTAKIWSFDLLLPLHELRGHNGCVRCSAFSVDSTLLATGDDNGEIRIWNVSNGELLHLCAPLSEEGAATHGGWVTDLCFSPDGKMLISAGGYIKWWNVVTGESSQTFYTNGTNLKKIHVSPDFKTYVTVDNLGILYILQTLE

[10] = MC4R antagonists, dose response, counter-screen for LGR2 antagonist project, cell-based, plate reader, cherry pick (AID 743444); format: functional;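 also: transfected HEK 293 cells stimulated with alpha-MSH peptide; potency of inhibitors of the alpha-MSH evoked signal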
[11] = LGR2 antagonists, dose response, cell-based, HEK293, CRE-luciferase reporter, cherry pick, set 2 (AID 743343); format: functional;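 also: transfected cells were stimulated with diluted bursicon conditioned medium after compound addition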
[12] = target: Paired box protein Pax-8 (Homo sapiens, UniProt Q06710); assay: inhibitors of PAX8-driven TPO luciferase reporter, dose response, RMG-I cells, cherry-pick (AID 687027); format: functional, cell-based;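 also: luciferase reporter driven by Pax8 target thyroperoxidase promoter measured by SteadyGlo luminescence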
Sequence of Paired box protein Pax-8 (Q06710 whole entry): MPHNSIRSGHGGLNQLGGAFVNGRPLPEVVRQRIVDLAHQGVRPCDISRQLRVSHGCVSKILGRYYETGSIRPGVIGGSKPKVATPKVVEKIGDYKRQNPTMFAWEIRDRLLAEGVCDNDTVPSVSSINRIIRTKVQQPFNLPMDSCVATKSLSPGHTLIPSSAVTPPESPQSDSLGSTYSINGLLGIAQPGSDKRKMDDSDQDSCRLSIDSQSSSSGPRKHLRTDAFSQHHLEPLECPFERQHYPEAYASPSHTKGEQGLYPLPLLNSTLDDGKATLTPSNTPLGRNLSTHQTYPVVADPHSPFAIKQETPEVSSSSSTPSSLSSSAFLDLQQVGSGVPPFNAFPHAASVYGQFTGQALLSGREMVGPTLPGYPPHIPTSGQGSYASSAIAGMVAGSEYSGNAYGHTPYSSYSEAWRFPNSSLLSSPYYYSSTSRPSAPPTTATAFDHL

[13] = non-specific cell cytotoxicity, dose response, cytotoxicity control for PAX8 inhibitor project, plate reader, dry powder samples (AID 743021); format: functional, cell-based
[14] = target: T4, Endoribonuclease toxin MazF (Escherichia coli K-12, UniProt P0AE70); assay: fluorescent RNA oligo signal without MazF, dose response, counter-screen for MazEF activator project, biochemical, fluorescence, single-stranded RNase substrate (AID 588502); format: functional
T4 sequence (P0AE70 whole entry): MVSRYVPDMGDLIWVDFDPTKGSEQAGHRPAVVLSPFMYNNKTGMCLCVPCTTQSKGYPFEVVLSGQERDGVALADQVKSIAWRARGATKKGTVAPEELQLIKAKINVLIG

[15] = target: T4, Endoribonuclease toxin MazF; assay: MazF toxin RNase activators, dose response, biochemical, fluorescence, single-stranded RNA substrate, uHTS hits (AID 588481); format: functional
[16] = target: T5, RNA-binding protein pos-1 (Caenorhabditis elegans, UniProt G5EF15); assay: inhibitors of POS-1/mex-3 RNA binding, dose response, biochemical, fluorescence polarization (AID 1964);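 also: purified POS-1 fused to maltose binding protein made in E. coli; potency of compounds blocking POS-1 binding to fluorescent RNA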
T5 sequence (G5EF15 whole entry): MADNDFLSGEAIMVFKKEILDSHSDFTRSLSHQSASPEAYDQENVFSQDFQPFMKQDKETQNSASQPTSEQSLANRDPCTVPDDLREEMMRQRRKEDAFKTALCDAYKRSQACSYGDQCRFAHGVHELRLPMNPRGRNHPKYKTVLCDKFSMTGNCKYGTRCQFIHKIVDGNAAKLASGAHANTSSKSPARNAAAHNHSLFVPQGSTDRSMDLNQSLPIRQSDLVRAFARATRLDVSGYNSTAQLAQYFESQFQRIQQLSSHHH

[17] = target: T6, Zinc finger protein mex-5 (Caenorhabditis elegans, UniProt Q9XUB2); assay: MEX-5/TCR-2 RNA interaction inhibitors, dose response, biochemical, C. elegans, fluorescence polarization (AID 1960)
T6 sequence (Q9XUB2 whole entry): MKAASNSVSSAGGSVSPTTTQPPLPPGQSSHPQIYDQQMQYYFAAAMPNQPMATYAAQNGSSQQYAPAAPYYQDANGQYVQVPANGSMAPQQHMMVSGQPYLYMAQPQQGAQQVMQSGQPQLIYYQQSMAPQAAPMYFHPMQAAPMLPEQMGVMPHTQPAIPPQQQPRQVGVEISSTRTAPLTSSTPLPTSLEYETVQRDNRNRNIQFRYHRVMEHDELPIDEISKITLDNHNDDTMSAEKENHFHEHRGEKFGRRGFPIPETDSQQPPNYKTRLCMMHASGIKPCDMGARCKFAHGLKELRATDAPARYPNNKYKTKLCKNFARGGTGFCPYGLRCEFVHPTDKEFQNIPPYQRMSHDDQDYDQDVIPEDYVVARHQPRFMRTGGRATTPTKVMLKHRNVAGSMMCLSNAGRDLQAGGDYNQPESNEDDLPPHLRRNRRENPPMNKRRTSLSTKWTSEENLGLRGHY

[18] = target: T7, Corticotropin-releasing factor receptor 2/Corticotropin-releasing factor-binding protein (Homo sapiens, UniProt P24387+Q13324); assay: activators of CRF receptor 2 with binding protein – uHTS hits, confirmation (AID 602473); format: functional; conditions: read-out: EC50_Mean
T7 sequence (Q13324 whole entry): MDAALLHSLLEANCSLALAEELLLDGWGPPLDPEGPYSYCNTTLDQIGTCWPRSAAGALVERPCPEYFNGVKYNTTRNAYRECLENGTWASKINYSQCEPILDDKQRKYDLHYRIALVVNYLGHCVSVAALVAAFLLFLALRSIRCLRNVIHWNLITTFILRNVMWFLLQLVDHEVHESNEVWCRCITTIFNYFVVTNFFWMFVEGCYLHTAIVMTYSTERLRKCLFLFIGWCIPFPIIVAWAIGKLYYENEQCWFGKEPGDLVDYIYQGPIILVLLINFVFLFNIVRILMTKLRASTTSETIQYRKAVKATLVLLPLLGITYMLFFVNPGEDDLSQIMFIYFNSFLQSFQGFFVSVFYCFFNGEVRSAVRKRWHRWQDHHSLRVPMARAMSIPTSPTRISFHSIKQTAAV
T7 sequence (P24387 whole entry): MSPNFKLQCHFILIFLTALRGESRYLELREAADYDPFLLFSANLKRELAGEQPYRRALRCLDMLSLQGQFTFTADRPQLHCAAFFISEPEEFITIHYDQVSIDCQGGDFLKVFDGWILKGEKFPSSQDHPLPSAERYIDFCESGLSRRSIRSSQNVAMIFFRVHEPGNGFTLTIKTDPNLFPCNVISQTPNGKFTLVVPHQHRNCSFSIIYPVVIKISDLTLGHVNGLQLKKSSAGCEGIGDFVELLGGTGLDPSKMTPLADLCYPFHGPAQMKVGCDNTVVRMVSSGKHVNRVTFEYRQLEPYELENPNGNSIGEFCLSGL

[19] = target: Heat shock protein HSP 90-alpha (Homo sapiens, UniProt P07900); format: functional, organism-based
[20] = growth suppression of PTEN-null colon cells, dose response, cell-based, HCT116 PTEN knockout (AID 1047); format: functional;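 also: HCT116 colon tumor cells with PTEN knocked out; cells exposed to compound for 60 hours before readout; potency for loss of cell viability measured by luminescence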
[21] = growth suppression of beta-catenin-knockout colon cells, dose response, cell-based, HCT116, human colon tumor (AID 1045); format: functional;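 also: HCT116 colon tumor cells with beta catenin knocked out; cells exposed to compound for 60 hours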
[22] = test system: INS1; assay: beta cell apoptosis inhibitors, cytokine rescue, dose response, luminescence, retest (AID 449756); format: functional, cell-based; conditions: Rattus norvegicus;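 also: cell death triggered by IL-1 beta plus TNF-alpha plus IFN-gamma mixture; protective hits raise ATP signal compared with cytokine alone wells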

CCN1CCN(Cc2ccc(NC(=O)c3cc(NC(=O)c4cncc(-c5cccs5)c4)cc(OC)c3)cc2C(F)(F)F)CC1
CC50 [1]: 8.62 µM (active) | EC50 [2]: > 120 µM (not active) | EC50 [3]: > 120 µM (not active) | EC50 [4]: 8.93 µM (active) | AC50 [5]: 7.38 µM (active) | IC50 [6]: > 20 µM (inactive)

O=C(OCC(=O)N1CCc2ccccc2C1)c1ccc(Cl)c([N+](=O)[O-])c1
IC50 [7]: 5.45 µM (active) | IC50 [8]: 2.41 µM (active)

CC(C)(C)OC(=O)CNC(=O)c1[nH]cnc1C(=O)N[C@@H](CCCCNC(=O)OC(C)(C)C)C(=O)OC(C)(C)C
IC50 [7]: 0.517 µM (active) | IC50 [8]: 0.364 µM (active)

CCCCOc1ccc(C(=O)NCC(=O)NCC(c2cccs2)N2CCOCC2)cc1 (stereo not given)
IC50 [9]: > 100 µM (inactive)

Cc1cc(Br)ccc1NC(=O)C(C)c1ccc([N+](=O)[O-])cc1 (stereo not given)
IC50 [7]: 31.9 µM (inactive) | IC50 [8]: 18.8 µM (active)

Cc1ccc2nc(-c3ccc(Br)cc3)cn2c1
AC50 [10]: 0.704 µM (active) | AC50 [11]: 0.662 µM (active) | AC50 [12]: 11.2 µM (active) | AC50 [13]: 24.6 µM (active)

COC(=O)Cn1cc(/C=C2\C(=O)NC(=O)N(c3ccc(OC)cc3)C2=O)c2ccccc21
EC50 [14]: 71.4 µM (inactive) | EC50 [15]: > 99 µM (inactive) | EC50 [16]: 69.1 µM (active) | EC50 [17]: 6.99 µM (active) | EC50 [18]: 5.57 µM (active)

O=C(CCn1c2c(c3ccccc31)CCCC2)NNC(=O)c1ccc(Cl)c([N+](=O)[O-])c1
IC50 [9]: 0.798 µM (active)

O=C(CN1CCN(C(=O)COc2cccc(F)c2)CC1)Nc1ccc(Cl)c(C(F)(F)F)c1
CC50 [1]: > 40 µM (active)

CC(C)(C)c1ccc(OCCC(=O)OCC(=O)NCc2ccccc2)cc1
IC50 [7]: 6.55 µM (active) | IC50 [8]: 6.7 µM (active)

Cn1c(SCC(=O)N/N=C/c2ccc([N+](=O)[O-])s2)nnc1-c1ccc(Cl)cc1
AC50 [19]: 2.55 µM (active) | EC50 [20]: 4.91 µM (active) | EC50 [21]: 4.82 µM (active) | AC50 [22]: 9.33 µM (active)
